Source: patent US7666989B2 (priority 2003, dated 2010)
≈ marks a conversion by molar mass, not a printed value. Marks after values point to notes of the source that are not given here.

Key:
human brain glioma U251 = system: human brain glioma U251
From the text: (§1) In this example, the animals used were BALB/c-nu nude mice, 6-8 weeks old. For each experiment, all animals were of the same sex.
(§2) Tumor cell lines: human brain glioma U251, human lung cancer cell line NCI-H460, human colon cancer cell line COLO205 were inoculated from in vitro culture into nude mice subcutaneously, the tumors were subcultured and kept.
(§3) Experimental Procedures: well-grown nude mice carrying well-grown tumors were selected and sacrificed by disjointing neck vertebra. The tumors were removed aseptically and were cut into pieces having a diameter of 2-3 mm by a scalpel. The pieces were inoculated into the axilla of nude mice subcutaneously by a needle. […] The length and width of tumors were measured by a vernier caliper. The animals were then grouped based their tumor sizes. Each group included seven to eight animals.
(§4) The length, width of the tumor and the body weight of the mice were measured twice per week. The tumor volume (TV) and relative tumor volume (RTV) were calculated. A graph indicating the changes of tumor size was plotted. At the end of this experiment, the tumors were taken out and weighed after the mice were sacrificed, and the inhibition rates of the medicament on tumor growth were calculated.
(§5) The formula for calculating tumor volume (TV) is: length×width^2÷2.
(§6) The formula for calculating relative tumor volume (RTV) is: Vt/Vo (wherein Vo is the TV value measured when the administration is started, Vt is the TV value measured after that).
(§7) T-test was used to determine the statistical difference of tumor weights, tumor volumes and RTV etc. between different groups of animal. The index used for evaluating the anti-tumor activity is the relative tumor growth rate T/C (%), the formula for which is: […]
(§8) The evaluation standard for efficacy:
(§9) T/C (%)>60 is ineffective;
(§10) T/C (%)≦60 and P<0.05 after statistical analysis is effective.
The Carmustine (Renmin Pharmaceuticals, Amino Acid Inc. Tianjin, P. R. China) was used as the positive control, 40 mg/kg, administered by intraperitoneal injection for once. CPT was given to four groups at the doses of 0.6 mg/kg, 1.7 mg/kg, 5.0 mg/kg, 15.0 mg/kg respectively, administered by intraperitoneal injection. The treatment included ten injections.

[1] = system: U251 (human brain glioma cell); assay: MTT cytotoxicity, U251; type: cell-based; conditions: U-251, 96 h, 4 days
From the text: (§11) Reagents: RPMI1640 is from GIBCO; MTT is from Bebco. Fetal bovine serum is purchased from Hangzhou SiJiQing Bioengineering Material Co. Ltd. (P. R. China).
(§12) Cell lines: COLO 205 (human colon cancer cell), NCI-H460 (human lung cancer cell), RPMI 8226 (human multiple myeloma cell), U251 (human brain glioma cell) are from ATCC, USA. HL-60 (human promyelocytic leukemia cell), MDA-MB-231, MDA-MB-435 (human breast cancer cell), SCLC (human small-cell lung cancer cell), H125 (human lung cancer cell) and PC-3 (human […] cancer cell).
(§13) The well-grown tumor cells were collected to prepare a cell suspension (1×10^4/ml) with RPMI 1640 medium containing 10% fetal bovine serum. The cell suspension was inoculated into a 96-well plate, 100 μL (containing 1000 tumor cells) per well. The plate was cultured in a 5% CO2 incubator at 37° C. for 24 hours, followed by addition of medicament.
(§14) A blank control and a positive control using 5-fluorouracil or adriamycin are employed in the experiment. […]
(§15) The supernatant was discarded. […] After gently shaking, the OD values were measured by a BIORAD 550 enzyme analyzer, with the detection wavelength being 540 nm and the reference wavelength being 450 nm.
(§16) Dose-response curves were generated by plotting with the cell inhibition rates and different concentrations of medicament, and the half inhibitory concentrations (IC50) were calculated.

[2] = system: COLO 205 (human colon cancer cell); assay: MTT cytotoxicity, COLO 205; type: cell-based; conditions: Homo sapiens, 96 h, 4 days, read-out: IC50
From the text: as §11, §12, §13, §14, §15, §16

[3] = system: MDA-MB-435 (human breast cancer cell); assay: MTT cytotoxicity, MDA-MB-435; type: cell-based; conditions: Homo sapiens, 96 h, 4 days, read-out: IC50
From the text: as §11, §12, §13, §14, §15, §16

[4] = system: NCI-H460 (human lung cancer cell); assay: MTT cytotoxicity, NCI-H460; type: cell-based; conditions: 96 h, 4 days
From the text: as §11, §12, §13, §14, §15, §16

[5] = system: MDA-MB-231 (human breast cancer cell); assay: MTT cytotoxicity, MDA-MB-231; type: cell-based; conditions: 96 h, 4 days
From the text: as §11, §12, §13, §14, §15, §16

PC-3 (human cancer cell) = assay: MTT cytotoxicity, PC-3; type: cell-based; conditions: Homo sapiens, 96 h, 4 days
From the text: as §11, §12, §13, §14, §15, §16

[6] = system: H125 (human lung cancer cell); assay: MTT cytotoxicity, H125; type: cell-based; conditions: Homo sapiens, NCI-H125, 96 h, 4 days, read-out: IC50
From the text: as §11, §12, §13, §14, §15, §16

[7] = system: RPMI 8226 (human multiple myeloma cell); assay: MTT cytotoxicity, RPMI 8226; type: cell-based; conditions: Homo sapiens, 96 h, 4 days, read-out: IC50
From the text: as §11, §12, §13, §14, §15, §16

[8] = system: SCLC (human small-cell lung cancer cell); assay: MTT cytotoxicity, SCLC; type: cell-based; conditions: Homo sapiens, 96 h, 4 days, read-out: IC50
From the text: as §11, §12, §13
A blank control and a positive control using 5-fluorouracil or adriamycin are employed in the experiment. The CPT samples have five concentrations, three parallel wells for each concentration. The cells were cultured in an incubator with 5% CO2 at 37° C. for 4 days. Then the culture medium was removed and 100 μL MTT solution (0.4 mg/ml in RPMI 1640) was added to each well. The plate was incubated at 37° C. for four additional hours.
The supernatant was discarded. 150 μl DMSO was added into each well in order to solubilize Fomazan granulates. After gently shaking, the OD values were measured by a BIORAD 550 enzyme analyzer, with the detection wavelength being 540 nm and the reference wavelength being 450 nm.
as §16

[9] = system: human lung cancer NCI-H460; assay: Growth of human lung cancer NCI-H460 xenograft in nude mice; type: in vivo, BALB/c-nu nude mice; conditions: Cyclophosphamide 100 mg/kg i.p., then 80 mg/kg two weeks later
Protocol: The animals were then grouped based their tumor sizes. Each group included seven to eight animals.
as §8, §9
One additional injection was given at 80 mg/kg two weeks later. […] The treatment contained a total of ten injections.

[10] = system: human colon cancer COLO 205; conditions: COLO 205 xenograft, hydroxycamptothecin 1 mg/kg i.p. once per day 15 days, then further courses
From the text: as §1, §2, §3, §4, §5, §6, §7, §8, §9, §10
Injectable hydroxycamptothecin (trade name: Xi Su, Wuhan Lishizhen Pharmaceuticals Inc., Huangshi Lishizhen Pharmaceuticals Group, P. R. China) was used as positive control, administered by intraperitoneal injection at the dose of 1 mg/kg, once per day. The administration was terminated after 15 consecutive days of administration. […] A single administration of 80 mg/kg hydroxycamptothecin was further given after two weeks. CPT was given to three treatment groups at the doses of 1.7 mg/kg, 5.0 mg/kg, 15.0 mg/kg respectively by intraperitoneal injection, once per day. The treatment contained a total of 15 injections.

[11] = system: HL-60 (human promyelocytic leukemia cell); assay: MTT cytotoxicity, HL-60; type: cell-based; conditions: 96 h, 4 days
From the text: as §11, §12, §13, §14, §15, §16

[12] = U251 xenograft, Carmustine 40 mg/kg i.p. once

O=NN(CCCl)C(=O)NCCCl [Carmustine, reference compound]
RTV (human brain glioma U251; [12]): 0.54 ± 0.29 | T/C (%) (human brain glioma U251; [12]): 16.0% | Tumor volume (mm^3) End (human brain glioma U251; [12]): 109 ± 78** mm^3 | Tumor weight (human brain glioma U251; [12]): 0.09 ± 0.06 g | Tumor volume (mm^3) Start (human brain glioma U251; U251 xenograft, Carmustine 40 mg/kg i.p. once, baseline): 153 ± 35 mm^3 | Inhibition rate (%) (human brain glioma U251; U251 xenograft, Carmustine 40 mg/kg i.p. once, by tumor weight): 93.0% | Body Weight (g) End (human brain glioma U251; mouse, in vivo): 19.4 ± 2.1 g | Body Weight (g) Start (human brain glioma U251; mouse, in vivo): 22.8 ± 0.7 g

O=c1[nH]cc(F)c(=O)[nH]1 [Fu, 5-fluorouracil, reference compound]
IC50 [1]: 0.981 ± 0.077 µg/mL (≈ 7.54 µM) | IC50 [2]: 0.826 ± 0.051 µg/mL (≈ 6.35 µM) | IC50 [3]: 0.199 ± 0.138 µg/mL (≈ 1.53 µM) | IC50 [4]: 0.566 ± 0.016 µg/mL (≈ 4.35 µM) | IC50 [5]: 0.318 ± 0.055 µg/mL (≈ 2.44 µM) | IC50 (PC-3 (human cancer cell)): 4.93 ± 0.753 µg/mL (≈ 37.9 µM) | IC50 [6]: 0.138 ± 0.031 µg/mL (≈ 1.06 µM) | IC50 [7]: < 0.1 µg/mL | IC50 [8]: 0.617 ± 0.0257 µg/mL (≈ 4.74 µM)

O=P1(N(CCCl)CCCl)NCCCO1 (stereo not shown) [Cyclophosphamide, reference compound]
Body Weight (g) End [9]: 16.1 ± 2.2 g | RTV [9]: 3.67 ± 2.15 | T/C (%) [9]: 61.4% | Tumor volume (mm^3) End [9]: 1121 ± 434 mm^3 | Tumor weight [9]: 0.96 ± 0.35 g | Body Weight (g) Start ([9]; baseline): 20.0 ± 1.3 g | Tumor volume (mm^3) Start ([9]; baseline): 179 ± 52 mm^3 | Inhibition rate (%) ([9]; by tumor weight): 40.4%

CC[C@@]1(O)C(=O)OCc2c1cc1n(c2=O)Cc2cc3cc(O)ccc3nc2-1 [Hydroxycamptothecin, hydroxycamptothecin, reference compound]
Body Weight (g) End [10]: 21.0 ± 2.5 g | RTV [10]: 3.92 ± 1.91 | T/C (%) [10]: 47.2% | Tumor volume (mm^3) End [10]: 845 ± 66** mm^3 | Tumor weight [10]: 0.66 ± 0.26 g | Body Weight (g) Start ([10]; baseline): 20.4 ± 0.9 g | Tumor volume (mm^3) Start ([10]; baseline): 150 ± 34 mm^3 | Inhibition rate (%) ([10]; by tumor weight): 66.3%

COc1cccc2c1C(=O)c1c(O)c3c(c(O)c1C2=O)C[C@@](O)(C(=O)CO)C[C@@H]3O[C@H]1C[C@H](N)[C@H](O)[C@H](C)O1 [Adr, Adriamycin]
IC50 [11]: 6 ng/mL (≈ 0.011 µM)
